pIC50: −log10 of the molar value. Where a name gives a salt, the structure may show the parent alone.
Key:
BACE1 = target: T1, BACE1 (Homo sapiens, UniProt P56817); assay: Cellular Aβ-lowering assay (Aβ40 ELISA, HEK293 cells expressing human APP695); assay type: cell-based; details: HEK293 cells stably expressing human APP695; Aβ40 in supernatant after 18-20 hrs
T1 construct: Human HEK293 cells which are stably transfected with a vector expressing a cDNA of the human APP wt gene (APP695); endogenous in cells; host or cells: HEK293 (human), stably transfected with human APP695 wt only
Description: Cellular Aβ-Lowering Assay:
Human HEK293 cells which are stably transfected with a vector expressing a cDNA of the human APP wt gene (APP695) were used to assess the potency of the compounds in a cellular assay. The cells were seeded in 96-well microtiter plates in cell culture medium (Iscove, plus 10% (v/v) fetal bovine serum, glutamine, penicillin/streptomycin) to about 80% confluence and the compounds were added at a 10× concentration in 1/10 volume of medium without FCS containing 8% DMSO (final concentration of DMSO was kept at 0.8% v/v). After 18-20 hrs incubation at 37° C. and 5% CO2 in a humidified incubator the culture supernatant was harvested for the determination of Aβ40 concentrations. 96well ELISA plates (e.g., Nunc MaxiSorb) were coated with monoclonal antibody which specifically recognize the C-terminal end of Aβ40 (Brockhaus et al., NeuroReport 9, 1481-1486; 1998). After blocking of non-specific binding sites with e.g. 1% BSA and washing, the culture supernatants were added in suitable dilutions together with a horseradish peroxidase-coupled Aβ detection antibody (e.g., antibody 4G8, Senetek, Maryland Heights, Mo.) and incubated for 5 to 7 hrs. Subsequently the wells of the microtiter plate were washed extensively with Tris-buffered saline containing 0.05% Tween 20 and the assay was developed with tetramethylbenzidine/H2O2 in citric acid buffer. After stopping the reaction with one volume 1 N H2SO4 the reaction was measured in an ELISA reader at 450 nm wavelength. The concentrations of Aβ in the culture supernatants were calculated from a standard curve obtained with known amounts of pure Aβ peptide.

BACE2 = target: T2, BACE2 (Rattus norvegicus, UniProt Q6IE75); assay: Assay for BACE inhibition by measuring cellular TMEM27 cleavage (INS-TMEM27 cells, ELISA); assay type: cell-based; details: INS-TMEM27 (INS1e-derived) cells; shed TMEM27 by ELISA
T2 construct: endogenous cellular BACE2 in the Ins1e rat cell line; endogenous in cells; host or cells: INS-TMEM27 (INS1e-derived rat cell line with doxycycline-inducible full-length human TMEM27)
T2 sequence (Q6IE75 63-514): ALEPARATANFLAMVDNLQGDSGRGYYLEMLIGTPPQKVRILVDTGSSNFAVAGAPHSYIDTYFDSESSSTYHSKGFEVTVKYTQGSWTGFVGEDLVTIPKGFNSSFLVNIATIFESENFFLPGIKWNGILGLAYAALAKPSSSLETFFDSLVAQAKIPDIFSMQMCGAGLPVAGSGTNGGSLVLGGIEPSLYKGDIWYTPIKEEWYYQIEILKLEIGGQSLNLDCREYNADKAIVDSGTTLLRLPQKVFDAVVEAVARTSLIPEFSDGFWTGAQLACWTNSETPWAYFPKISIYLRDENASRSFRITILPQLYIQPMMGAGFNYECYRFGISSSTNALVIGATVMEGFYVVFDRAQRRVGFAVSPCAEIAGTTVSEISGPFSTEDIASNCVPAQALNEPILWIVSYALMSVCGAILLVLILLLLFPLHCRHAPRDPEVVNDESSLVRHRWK
Text: Assay for BACE Inhibition by Measuring Cellular TMEM27 Cleavage:
The assay uses the principle of inhibition of human TMEM27 cleavage by endogenous cellular BACE2 in the Ins1e rat cell line and shedding from the cell surface into the culture medium, followed by detection in an ELISA assay. Inhibition of BACE2 prevents the cleavage and shedding in a dose-dependent manner.
The stable cell line “INS-TMEM27” represents an INS1e-derived cell line with inducible expression (using the TetOn system) of full-length hTMEM27 in a doxycycline-dependent manner. The cells are cultured throughout the experiment in RPMI1640+Glutamax (Invitrogen) Penicillin/Streptomycin, 10% Fetal bovine serum, […], […], 100 micrograms/ml G418 and 100 microgram/ml hygromycin and are grown inadherent culture at 37° C. in a standard CO2 cell culture incubator.
INS-TMEM27 cells are seeded in 96-well plates. After 2 days in culture, BACE2 inhibitor is added in a range of concentrations as required by the assay and after a further two hours, doxycycline is added to a final concentration of 500 ng/ml. The cells are incubated for a further 46 hours and the supernatant harvested for detection of shed TMEM27.
An ELISA assay (using a pair of mouse anti-human-TMEM27 antibodies, raised against the extracellular domain of TMEM27) is used for detection of TMEM27 in the culture medium. An EC50 for BACE2 inhibition is calculated using the ELISA readout for each inhibitor concentration with standard curve-fitting software such as XLFit for the Excel spreadsheet program.

CYP2D6 = target: T3, CYP2D6 (Homo sapiens, UniProt P10635); assay: CYP inhibition assay, human liver microsomes, dextromethorphan O-demethylase; assay type: in vitro ADME; details: pooled human liver microsomes, read-out: CYP IC50 2D6
T3 construct: 0.2 mg/ml pooled human liver microsomes; from tissue; host or cells: pooled human liver microsomes
Description: (§1) Inhibition of cytochromes P450 (CYPs) 2C9, 2D6 and 3A4 was assessed using human liver microsomes and CYP-selective substrate metabolism reactions. 50 μl incubations were made up containing (finally) 0.2 mg/ml pooled human liver microsomes, 5 μM substrate (diclofenac for CYP2C9 [4′hydroxylase], dextromethorphan for CYP2D6 [O-demethylase] or midazolam for CYP3A4 [1′hydroxylase]), 0.25 μL DMSO containing test inhibitor and NADPH regenerating system. Test inhibitor concentrations of 50, 16.7, 5.6, 1.9, 0.6 and 0.2 μM were assessed in singlicate. Incubations were prewarmed to 37° C. for 10 minutes before initiation by addition of NADPH regenerating system. Incubations were quenched after 5 minutes (20 minutes for dextromethorphan) by addition of 50 μl cold acetonitrile containing 20 ng/ml 4-OH-diclofenac-13C6, 20 ng/mL dextrorphan-D3 and 20 ng/mL 1-OH-midazolam-D4. Quenched incubates were stored at −20° C. for at least 1 hour before centrifugation (20,000×g, 20 minutes). Supernatants were removed and diluted 1:1 with water prior to analysis using a RapidFire sample injector system and API4000 mass spectrometer. Peak areas for substrate, metabolite and stable-labelled metabolite standard were determined using MS/MS. The peak area ratios between the metabolite generated by the enzymatic reaction and the internal standard were used in subsequent calculations. The percentage of (DMSO) control activity was calculated for each incubate and IC50 values estimated by non-linear regression. Sulfaphenazole, quinidine or ketoconazole were tested in each CYP2C9, CYP2D6 or CYP3A4 inhibition experiment, respectively, to ensure assay sensitivity and reproducibility. (Validated assays for human cytochrome P450 activities, R. L. Walsky and R. S. Obach, Drug Metabolism and Disposition 32: 647-660, 2004. and S. Fowler and H. Zhang, The AAPS Journal, Vol. 10, No. 2, 410-424, 2008.)

CYP2C9 = target: T4, CYP2C9 (Homo sapiens, UniProt P11712); assay: CYP inhibition assay, human liver microsomes, diclofenac 4′hydroxylase; assay type: in vitro ADME; details: pooled human liver microsomes, read-out: CYP IC50 2C9
T4 construct: 0.2 mg/ml pooled human liver microsomes; from tissue; host or cells: pooled human liver microsomes
Description: as §1

CYP3A4 = target: T5, CYP3A4 (Homo sapiens, UniProt P08684); assay: CYP inhibition assay, human liver microsomes, midazolam 1′hydroxylase; assay type: in vitro ADME; details: pooled human liver microsomes, read-out: CYP IC50 3A4
T5 construct: 0.2 mg/ml pooled human liver microsomes; from tissue; host or cells: pooled human liver microsomes
Description: as §1

T1 sequence (P56817 46-501): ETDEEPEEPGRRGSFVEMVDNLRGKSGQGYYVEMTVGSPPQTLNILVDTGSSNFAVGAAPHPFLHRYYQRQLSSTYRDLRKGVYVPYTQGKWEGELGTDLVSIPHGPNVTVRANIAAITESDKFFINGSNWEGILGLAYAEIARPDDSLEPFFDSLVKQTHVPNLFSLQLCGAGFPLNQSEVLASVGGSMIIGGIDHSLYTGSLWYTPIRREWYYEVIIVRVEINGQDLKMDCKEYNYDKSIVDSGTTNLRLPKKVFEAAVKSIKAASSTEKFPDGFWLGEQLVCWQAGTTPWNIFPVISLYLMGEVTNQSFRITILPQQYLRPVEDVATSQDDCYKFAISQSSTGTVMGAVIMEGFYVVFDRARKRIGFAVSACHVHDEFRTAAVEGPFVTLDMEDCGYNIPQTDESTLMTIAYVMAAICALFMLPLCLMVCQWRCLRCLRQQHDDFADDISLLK
T5 sequence (P08684 whole entry): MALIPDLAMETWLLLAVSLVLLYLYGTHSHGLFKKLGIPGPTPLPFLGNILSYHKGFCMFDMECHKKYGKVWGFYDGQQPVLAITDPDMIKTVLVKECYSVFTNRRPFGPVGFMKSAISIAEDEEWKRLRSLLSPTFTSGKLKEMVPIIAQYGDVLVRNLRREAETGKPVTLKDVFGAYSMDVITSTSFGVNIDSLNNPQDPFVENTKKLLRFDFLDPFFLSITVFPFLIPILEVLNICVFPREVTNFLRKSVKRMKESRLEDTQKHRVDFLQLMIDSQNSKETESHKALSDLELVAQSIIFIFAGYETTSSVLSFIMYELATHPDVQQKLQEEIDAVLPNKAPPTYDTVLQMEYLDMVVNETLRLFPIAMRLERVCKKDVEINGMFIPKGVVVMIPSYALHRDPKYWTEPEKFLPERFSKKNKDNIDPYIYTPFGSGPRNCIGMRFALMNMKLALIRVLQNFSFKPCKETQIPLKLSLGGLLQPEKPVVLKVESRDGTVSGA
T3 sequence (P10635 whole entry): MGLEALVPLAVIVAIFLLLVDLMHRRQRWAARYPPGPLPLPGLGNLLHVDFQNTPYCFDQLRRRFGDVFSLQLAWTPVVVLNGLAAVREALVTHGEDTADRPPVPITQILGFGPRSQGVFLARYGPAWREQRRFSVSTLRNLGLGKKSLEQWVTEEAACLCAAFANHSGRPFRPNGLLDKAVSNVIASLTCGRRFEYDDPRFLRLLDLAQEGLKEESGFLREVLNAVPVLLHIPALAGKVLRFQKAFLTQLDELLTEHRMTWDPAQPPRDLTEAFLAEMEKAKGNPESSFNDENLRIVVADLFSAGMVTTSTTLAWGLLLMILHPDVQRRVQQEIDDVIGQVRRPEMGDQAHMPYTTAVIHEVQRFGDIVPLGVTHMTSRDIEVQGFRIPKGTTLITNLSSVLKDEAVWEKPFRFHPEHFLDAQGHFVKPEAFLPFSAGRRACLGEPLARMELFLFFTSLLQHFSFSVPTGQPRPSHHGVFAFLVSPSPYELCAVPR
T4 sequence (P11712 whole entry): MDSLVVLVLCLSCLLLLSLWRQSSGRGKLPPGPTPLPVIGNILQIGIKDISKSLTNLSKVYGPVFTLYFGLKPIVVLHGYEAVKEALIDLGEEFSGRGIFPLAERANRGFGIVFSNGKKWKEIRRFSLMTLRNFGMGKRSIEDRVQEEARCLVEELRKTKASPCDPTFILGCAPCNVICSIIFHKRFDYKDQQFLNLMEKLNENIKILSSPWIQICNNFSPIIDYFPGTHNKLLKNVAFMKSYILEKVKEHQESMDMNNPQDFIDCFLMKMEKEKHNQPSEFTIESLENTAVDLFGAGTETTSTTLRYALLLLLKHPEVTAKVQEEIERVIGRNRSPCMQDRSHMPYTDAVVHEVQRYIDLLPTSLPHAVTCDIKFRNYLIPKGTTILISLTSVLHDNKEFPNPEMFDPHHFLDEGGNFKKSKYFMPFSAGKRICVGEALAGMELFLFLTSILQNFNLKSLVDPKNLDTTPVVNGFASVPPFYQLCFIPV

Compound | pIC50 (BACE1) | other results
COc1cc(-c2cccc(C3(C)COCC(N)=N3)c2)cc(F)c1F (stereo not shown) [Example 56, 5-(4′,5′-Difluoro-3′-methoxy-biphenyl-3-yl)-5-methyl-5,6-dihydro-2H-[1,4]oxazin-3-ylamine formate] | 5.59 | –
CC1(c2cccc(-c3cncnc3)c2)COCC(N)=N1 (stereo not shown) [Example 35, 5-Methyl-5-(3-pyrimidin-5-yl-phenyl)-5,6-dihydro-2H-[1,4]oxazin-3-ylamine] | – | pIC50 (CYP2D6): 4.74; pIC50 (CYP2C9): < 4.30; pIC50 (CYP3A4): < 4.30
CC1(c2cccc(-c3cccc(OC(F)(F)F)c3)c2)COCC(N)=N1 (stereo not shown) [Example 15, 5-Methyl-5-(3′-trifluoromethoxy-biphenyl-3-yl)-5,6-dihydro-2H-[1,4]oxazin-3-ylamine] | 5.64 | –
CC1(c2cccc(-c3cncc(C#N)c3)c2)COCC(N)=N1 (stereo not shown) [Example 38, 5-(3-(5-Amino-3-methyl-3,6-dihydro-2H-1,4-oxazin-3-yl)phenyl)nicotinonitrile] | 6.51 | –
C[C@@]1(c2cc(-c3cc(Cl)cc(Cl)c3)ccc2F)COCC(N)=N1 [Example 37, (R)-5-(3′,5′-Dichloro-4-fluoro-biphenyl-3-yl)-5-methyl-5,6-dihydro-2H-[1,4]oxazin-3-ylamine] | 6.29 | pIC50 (BACE2): 6.92
COCC#Cc1cccc(C2(C)COCC(N)=N2)c1 (stereo not shown) [Example 42, 5-[3-(3-Methoxy-prop-1-ynyl)-phenyl]-5-methyl-5,6-dihydro-2H-[1,4]oxazin-3-ylamine] | 5.97 | –
CC1(c2cccc(-c3ccc(F)c(OCC(F)(F)F)c3)c2)COCC(N)=N1 (stereo not shown) [Example 58, 5-[4′-Fluoro-3′-(2,2,2-trifluoro-ethoxy)-biphenyl-3-yl]-5-methyl-5,6-dihydro-2H-[1,4]oxazin-3-ylamine formate] | 5.08 | –
CC1(c2cccc(-c3cc(Cl)cnc3Cl)c2)COCC(N)=N1 (stereo not shown) [Example 20, 5-[3-(2,5-Dichloro-pyridin-3-yl)-phenyl]-5-methyl-5,6-dihydro-2H-[1,4]oxazin-3-ylamine] | 6.31 | –
Cc1cc(C2(c3cccc(-c4cncc(Cl)c4)c3)COCC(N)=N2)ccc1OC(F)F (stereo not shown) [Example 46, 5-[3-(5-Chloro-pyridin-3-yl)-phenyl]-5-(4-difluoromethoxy-3-methyl-phenyl)-5,6-dihydro-2H-[1,4]oxazin-3-ylamine] | 7.40 | pIC50 (BACE2): 7.52

The remaining molecules from weak to strong by pIC50 (BACE1), led by results:

pIC50 (BACE1) | Compound | other results
5.04 | CCOc1cccc(-c2cccc(C3(C)COCC(N)=N3)c2)c1 (stereo not shown) [Example 30, 5-(3′-Ethoxy-biphenyl-3-yl)-5-methyl-5,6-dihydro-2H-[1,4]oxazin-3-ylamine] | –
5.17 | CC1(c2cccc(-c3cc(C(F)(F)F)cc(C(F)(F)F)c3)c2)COCC(N)=N1 (stereo not shown) [Example 57, 5-(3′,5′-Bis-trifluoromethyl-biphenyl-3-yl)-5-methyl-5,6-dihydro-2H-[1,4]oxazin-3-ylamine formate] | –
5.36 | COc1ccc2ccc(-c3cccc(C4(C)COCC(N)=N4)c3)cc2c1 (stereo not shown) [Example 59, 5-[3-(7-Methoxy-naphthalen-2-yl)-phenyl]-5-methyl-5,6-dihydro-2H-[1,4]oxazin-3-ylamine formate] | –
5.61 | Cc1cc(Cl)cc(-c2cccc(C3(C)COCC(N)=N3)c2)c1 (stereo not shown) [Example 9, 5-(3′-Chloro-5′-methyl-biphenyl-3-yl)-5-methyl-5,6-dihydro-2H-[1,4]oxazin-3-ylamine] | pIC50 (BACE2): 5.95
5.95 | CC1(c2cccc(-c3cc(Cl)cc(C(N)=O)c3)c2)COCC(N)=N1 (stereo not shown) [Example 12, 3′-(5-Amino-3-methyl-3,6-dihydro-2H-[1,4]oxazin-3-yl)-5-chloro-biphenyl-3-carboxylic acid amide] | –
5.96 | CC1(c2cccc(-c3cc(Cl)ccc3Cl)c2)COCC(N)=N1 (stereo not shown) [Example 5, 5-(2′,5′-Dichloro-biphenyl-3-yl)-5-methyl-5,6-dihydro-2H-[1,4]oxazin-3-ylamine] | –
5.97 | CC1(c2cccc(-c3cccc(CC#N)c3)c2)COCC(N)=N1 (stereo not shown) [Example 17, [3′-(5-Amino-3-methyl-3,6-dihydro-2H-[1,4]oxazin-3-yl)-biphenyl-3-yl]-acetonitrile] | –
5.97 | CC1(c2cccc(-c3ccc(F)cc3F)c2)COCC(N)=N1 (stereo not shown) [Example 27, 5-(2′,4′-Difluoro-biphenyl-3-yl)-5-methyl-5,6-dihydro-2H-[1,4]oxazin-3-ylamine] | –
6.44 | Cc1cc(C2(c3cccc(-c4ccc(Cl)nc4)c3)COCC(N)=N2)ccc1OC(F)F (stereo not shown) [Example 45, 5-[3-(6-Chloro-pyridin-3-yl)-phenyl]-5-(4-difluoromethoxy-3-methyl-phenyl)-5,6-dihydro-2H-[1,4]oxazin-3-ylamine] | –
6.70 | CC1(c2cccc(-c3nc4ccc(Cl)cc4o3)c2)COCC(N)=N1 (stereo not shown) [Example 49, 5-[3-(6-Chloro-benzooxazol-2-yl)-phenyl]-5-methyl-5,6-dihydro-2H-[1,4]oxazin-3-ylamine] | pIC50 (BACE2): 6.70
